{
  "source": "patent US8952042B2",
  "about": "“FXR (NR1H4) binding and activity modulating compounds” (Phenex Pharmaceuticals AG, priority 2009, dated 2015)",
  "key": {"[1]": {"target": "T1, human FXR alpha ligand binding domain (Homo sapiens, UniProt Q96RI1)", "T1 construct": "made in house; host or cells: E. coli BL21(DE3), vector pDEST15", "T1 sequence (Q96RI1 187-472 isoform Q96RI1-2)": "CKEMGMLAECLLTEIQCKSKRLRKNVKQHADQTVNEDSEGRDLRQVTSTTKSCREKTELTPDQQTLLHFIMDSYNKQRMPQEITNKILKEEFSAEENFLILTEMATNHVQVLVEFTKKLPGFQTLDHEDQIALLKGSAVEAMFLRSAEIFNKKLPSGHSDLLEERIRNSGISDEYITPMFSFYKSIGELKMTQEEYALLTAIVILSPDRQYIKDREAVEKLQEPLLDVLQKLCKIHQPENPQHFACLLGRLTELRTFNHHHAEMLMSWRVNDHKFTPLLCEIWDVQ", "assay": "FRET activity assay (ligand mediated cofactor peptide interaction, LANCE)", "assay_type": "biochemical", "conditions": "potency range", "method": "Determination of a ligand mediated cofactor peptide interaction to quantify ligand binding to the nuclear receptor FXR was performed as follows: Preparation of human FXR alpha ligand binding domain: The human FXRalpha LBD was expressed in E. coli strain BL21(DE3) as an N-terminally GST tagged fusion protein. The DNA encoding the FXR ligand binding domain was cloned into vector pDEST15 (Invitrogen). Expression was under control of an IPTG inducible T7 promoter. The amino acid boundaries of the ligand binding domain were amino acids 187-472 of Database entry NM_005123 (RefSeq). Expression and purification of the FXR-LBD: An overnight preculture of a transformed E. coli strain was diluted 1:20 in LB-Ampicillin medium and grown at 30° C. to an optical density of OD600=0.4-0.6. Gene expression was then induced by addition of 0.5 mM IPTG. Cells were incubated an additional 6 h at 30° C., 180 rpm. Cells were collected by centrifugation (7000×g, 7 min, room temperature). Per liter of original cell culture, cells were resuspended in 10 mL lysis buffer (50 mM Glucose, 50 mM Tris pH 7.9, 1 mM EDTA and 4 mg/mL lysozyme) and left on ice for 30 min. Cells were then subjected to sonication and cell debris removed via centrifugation (22000×g, 30 min, 4° C.). Per 10 mL of supernatant 0.5 mL prewashed Glutathione 4B sepharose slurry (Qiagen) was added and the suspension kept slowly rotating for 1 h at 4° C. Glutathione 4B sepharose beads were pelleted by centrifugation (2000×g, 15 sec, 4° C.) and washed twice in wash buffer (25 mM Tris, 50 mM KCl, 4 mM MgCl2 and 1M NaCl). The pellet was resuspended in 3 mL elution buffer per liter of original culture (elution buffer: 20 mM Tris, 60 mM KCl, 5 mM MgCl2 and 80 mM glutathione added immediately prior to use as powder). The suspension was left rotating for 15 min at 4° C., the beads pelleted and eluted again with half the volume of elution buffer than the first time. The eluates were pooled and dialysed overnight in 20 mM Hepes buffer (pH 7.5) containing 60 mM KCl, 5 mM MgCl2 as well as 1 mM dithiothreitol and 10% (v/v) glycerol. The protein was analysed by SDS-Page.\nThe method measures the ability of putative ligands to modulate the interaction between the purified bacterial expressed FXR ligand binding domain (LBD) and a synthetic biotinylated peptide based on residues 676-700 of SRC-1 (LCD2, 676-700). […] The ligand binding domain (LBD) of FXR was expressed as fusion protein with GST in BL-21 cells using the vector pDEST15. Cells were lysed by sonication, and the fusion proteins purified over glutathione sepharose (Pharmacia) according to the manufacturers instructions. For screening of compounds for their influence on the FXR-peptide interaction, the Perkin Elmer LANCE technology was applied. This method relies on the binding dependent energy transfer from a donor to an acceptor fluorophor attached to the binding partner of interest. For ease of handling and reduction of background from compound fluorescence LANCE technology makes use of generic fluorophore labels and time resolved detection Assays were done in a final volume of 25 μL in a 384 well plate, in a Tris-based buffer (20 mM Tris-HCl pH 7.5; 60 mM KCl, 5 mM MgCl2; 35 ng/μL BSA), containing 20-60 ng/well recombinantly expressed FXR-LBD fused to GST, 200-600 nM N-terminally biotinylated peptide, representing SRC1 aminoacids 676-700, 200 ng/well Streptavidin-xIAPC conjugate (Prozyme) and 6-10 ng/well Eu W1024—antiGST (Perkin Elmer). DMSO content of the samples was kept at 1%. After generation of the assay mix and diluting the potentially FXR modulating ligands, the assay was equilibrated for one hour in the dark at room temperature in FIA-plates black 384 well (Greiner). The LANCE signal was detected by a Perkin Elmer VICTOR2V™ Multilabel Counter. The results were visualized by plotting the ratio between the emitted light at 665 and 615 nm."}, "[2]": {"assay": "Plasma levels in mice after single dose gavage 5 mg/kg", "assay_type": "in vivo", "conditions": "C57/bl6 mice, FIG. 1c, 5 mg/kg gavage", "method": "Data represent the mean of 3 individual mouse plasma measurements.\nCompounds were applied perorally by gavage at 5 mg/kg each and by i.v. Injection at 1 mg/kg each to male 12 weeks old C57BI/6J or Sprague Dawley rats and plasma concentrations of the test items were determined by LC-MS/MS after time points as indicated. In the case of Cynomolgus monkeys ([…]), the dose was adjusted to 12 mg/kg p.o., no i.v. injection was given (FIG. 1a, 1b and Table 2).\nA solution of 2.5 mg/mL of each test item was produced by diluting them in the vehicle, 0.5% Hydroxypropyl-Methylcellulose (w/v) in 20 mM phosphate buffered saline pH 7.4. The solutions were stirred overnight at room temperature and heated to 40° C. for 10 minutes, resulting in fully homogenous suspension. The application was performed by administrating the solution perorally to the mice, with an application volume of 5 mL/kg. For each time point three mice or rats were used. In case of the Cynomolgus monkeys blood samples were obtained by repeated vein puncture. Blood samples were treated with L1-heparin during collection procedure and stored on ice until centrifugation at 645 g (5 min, 4° C.). Plasma was harvested and kept at −20° C. until being assayed. […] An aliquot of the particle-free supernatant was transferred to 200 μL sampler vials and subsequently subjected to LC MS/MS for quantification."}},
  "data": [
    {"smiles": "O=C(O)c1cccc(C2CC2c2ccc(OCc3c(-c4c(Cl)cccc4Cl)noc3C3CC3)cc2Cl)c1", "note": "(racemic) [Example 4, 3-(2-(2-chloro-4-((5-cyclopropyl-3-(2,6-dichlorophenyl)isoxazol-4-yl)methoxy)phenyl)-cyclopropyl)benzoic acid]", "values": [
      {"measurement": "EC50", "setting": "[1]", "value": "10 to 100", "unit": "nM"},
      {"measurement": "plasma levels as compared to GW4064", "setting": "[2]", "value": "substantially higher"}
    ]},
    {"smiles": "O=C(O)c1ccc(C2CC2c2ccc(OCc3c(-c4c(Cl)cccc4Cl)noc3C3CC3)cc2Cl)cc1", "note": "(racemic) [Example 12, 4-(2-(2-chloro-4-((5-cyclopropyl-3-(2,6-dichlorophenyl)isoxazol-4-yl)methoxy)phenyl)cyclopropyl)benzoic acid]", "values": [
      {"measurement": "EC50", "setting": "[1]", "value": "> 100", "unit": "nM"},
      {"measurement": "plasma levels as compared to GW4064", "setting": "[2]", "value": "substantially higher"}
    ]}
  ]
}
